# Columns and labels:
# [1] = target: T1, "5-HT1 -like" receptor (Canis lupus familiaris, UniProt P79250); assay: contraction of dog isolated saphenous vein strip (in vitro "5-HT1 -like" receptor agonist activity); assay type: cell-based; conditions: for EC50: concentration which causes 50% of the maximum contraction effected by the compound; for RELATIVE POTENCY EC50 (compound) / EC50 (5-HT): ratio to 5-HT
# T1 construct: dog isolated saphenous vein strip; from tissue; host or cells: dog isolated saphenous vein strip
# Source text: EC50 represents the concentration of compound which causes 50% of the maximum contraction effected by it.
# [2] = acute toxicity in conscious dog, i.v.; assay type: in vivo; conditions: doses of up to 1 mg/Kg i.v.
# [3] = acute toxicity in conscious mouse, i.v.; assay type: in vivo; conditions: doses of up to 10 mg/Kg i.v.
# [4] = target: T1, "5-HT1 -like" receptor; conditions: cited from earlier work
# [5] = system: carotid vascular bed; conditions: anaesthetized dog; cited from earlier work
# T1 sequence (P79250 whole entry): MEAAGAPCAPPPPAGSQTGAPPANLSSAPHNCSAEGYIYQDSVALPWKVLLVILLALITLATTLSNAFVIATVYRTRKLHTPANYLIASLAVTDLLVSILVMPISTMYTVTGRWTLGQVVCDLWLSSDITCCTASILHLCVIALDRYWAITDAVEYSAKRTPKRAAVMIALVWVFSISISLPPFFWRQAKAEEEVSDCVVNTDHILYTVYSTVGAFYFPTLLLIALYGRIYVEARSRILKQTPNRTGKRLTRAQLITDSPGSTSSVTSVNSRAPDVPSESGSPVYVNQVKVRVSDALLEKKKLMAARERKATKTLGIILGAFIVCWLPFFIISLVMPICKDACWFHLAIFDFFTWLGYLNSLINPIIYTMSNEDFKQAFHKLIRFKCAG
SMILES,EC50 [1],RELATIVE POTENCY EC50 (compound) / EC50 (5-HT) [1],other results
"CN1CCC[C@@H]1Cc1c[nH]c2ccc(C=CC(C)(C)O)cc12 [Example 1, 5-(3-Hydroxy-3-methyl-1-but-1-enyl)-3-(N-methyl-2(R)-pyrrolidinylmethyl)-1H-indole]",400 nM,7.7,–
"CC(C)(O)CCc1ccc2[nH]cc(C[C@H]3CCCN3CC3CC3)c2c1 [Example 25, 3-(N-Cyclopropylmethyl-2(R)-pyrrolidinylmethyl)-5-(3-hydroxy-3-methyl-1-butyl)-1H-indole]",480 nM,6.4,–
"CC(C)(O)CCc1ccc2[nH]cc(C[C@H]3CCCN3)c2c1 [Example 29, 5-(3-Hydroxy-3-methyl-1-butyl)-3-(2(R)-pyrrolidinylmethyl)-1H-indole]",670 nM,9.0,signs of adverse acute toxicity [2]: no signs of adverse acute toxicity; signs of adverse acute toxicity [3]: no signs of adverse acute toxicity
"CC(C)(O)CCc1ccc2[nH]cc(C[C@H]3CCCN3CCc3ccncc3)c2c1 [Example 30, 5-(3-Hydroxy-3-methyl-1-butyl)-3-{N-[2-(4-pyridyl)ethyl]-2(R)-pyrrolidinylmethyl}-1H-indole]",940 nM,7.2,–
"CC(=O)CCc1ccc2[nH]cc(C[C@H]3CCCN3)c2c1 [Example 37, 5-(3-Oxo-1-butyl)-3-(2(R)-pyrrolidinylmethyl)-1H-indole]",130 nM,1.3,–
"CC(O)CCc1ccc2[nH]cc(C3CCN(C)CC3)c2c1 (centres unmarked) [Example 43, 5-(3-Hydroxy-1-butyl)-3-(N-methyl-4-piperidyl)-1H-indole]",560 nM,8.0,–
"CC(C)(O)CCc1ccc2[nH]cc(CCN)c2c1 [Example 48, 3-(2-Aminoethyl)-5-(3-hydroxy-3-methyl-1-butyl)-1H-indole]",300 nM,3.2,–
"CC(O)(CCc1ccc2[nH]cc(C[C@H]3CCCN3)c2c1)C(F)(F)F (stereo partly drawn) [Example 95, 5-(3-Hydroxy-3-trifluoromethyl-1-butyl)-3-(2(R)-pyrrolidinylmethyl)-1H-indole]",320 nM,4.0,–
"CN(C)C(=O)CCN1CCC[C@@H]1Cc1c[nH]c2ccc(CCC3(O)CCOC3)cc12 (stereo partly drawn) [Example 101, 5-[2-(3-Hydroxy-3-tetrahydrofuranyl)ethyl]-3-{N-[2-(N,N-dimethylcarbamoyl)ethyl]-2(R)-pyrrolidinylmethyl}-1H-indole]",700 nM,10.0,–
"OC1(CCc2ccc3[nH]cc(C4CCNC4)c3c2)CCCC1 (centres unmarked) [Example 109, 5-[2-(1-Hydroxycyclopentyl)ethyl]-3-(3-pyrrolidinyl)-1H-indole]",750 nM,8.5,–
"CNS(=O)(=O)Cc1ccc2[nH]cc(CCN(C)C)c2c1 [Sumatriptan, sumatriptan]",–,–,"contraction of the isolated dog saphenous vein strip ([4]; P.P.A. Humphrey et al., Brit. J. Pharmacol., 1988, 94, 1123): contracting the isolated dog saphenous vein strip; carotid arterial blood flow [5]: decrease in carotid arterial blood flow; carotid vascular resistance [5]: selective increase in carotid vascular resistance"
CSc1ccc2c(c1)C(N1CCN(C)CC1)Cc1ccccc1S2 (centres unmarked) [methiothepin],–,–,"blockade of the contraction effect ([4]; isolated dog saphenous vein strip, known 5-HT antagonist): blocked"
